Reference: ChEMBL document CHEMBL3039007, “Structure-based identification of OATP1B1/3 inhibitors” (Mol Pharmacol, 2013)
Residues, ends and D or L forms follow the SMILES beside them.

What was measured:
[1] = biological target: T1, Solute carrier organic anion transporter family member 1B1 (Homo sapiens, UniProt Q9Y6L6); conditions: chinese hamster, cho, 10 µM
T1 sequence (Q9Y6L6 whole entry): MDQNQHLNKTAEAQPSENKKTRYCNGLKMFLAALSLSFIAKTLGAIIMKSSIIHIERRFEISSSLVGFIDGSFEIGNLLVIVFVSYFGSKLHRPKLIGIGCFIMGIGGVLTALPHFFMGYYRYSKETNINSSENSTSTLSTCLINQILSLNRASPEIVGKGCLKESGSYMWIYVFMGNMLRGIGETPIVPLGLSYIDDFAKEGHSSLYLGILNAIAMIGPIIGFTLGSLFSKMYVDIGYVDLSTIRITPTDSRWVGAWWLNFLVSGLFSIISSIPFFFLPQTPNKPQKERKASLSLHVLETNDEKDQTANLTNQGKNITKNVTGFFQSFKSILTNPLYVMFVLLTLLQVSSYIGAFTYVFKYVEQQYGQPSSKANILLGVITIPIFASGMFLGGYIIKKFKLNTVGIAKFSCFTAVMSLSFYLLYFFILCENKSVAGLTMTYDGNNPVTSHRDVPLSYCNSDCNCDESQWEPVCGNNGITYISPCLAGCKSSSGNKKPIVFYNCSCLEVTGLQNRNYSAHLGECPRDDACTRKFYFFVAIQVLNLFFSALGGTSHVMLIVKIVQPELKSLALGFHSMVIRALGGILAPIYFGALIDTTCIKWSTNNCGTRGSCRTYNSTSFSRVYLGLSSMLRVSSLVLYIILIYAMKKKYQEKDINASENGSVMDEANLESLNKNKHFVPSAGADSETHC

[2] = biological target: T2, Solute carrier organic anion transporter family member 1B3 (Homo sapiens, UniProt Q9NPD5); conditions: chinese hamster, cho, 10 µM
T2 sequence (Q9NPD5 whole entry): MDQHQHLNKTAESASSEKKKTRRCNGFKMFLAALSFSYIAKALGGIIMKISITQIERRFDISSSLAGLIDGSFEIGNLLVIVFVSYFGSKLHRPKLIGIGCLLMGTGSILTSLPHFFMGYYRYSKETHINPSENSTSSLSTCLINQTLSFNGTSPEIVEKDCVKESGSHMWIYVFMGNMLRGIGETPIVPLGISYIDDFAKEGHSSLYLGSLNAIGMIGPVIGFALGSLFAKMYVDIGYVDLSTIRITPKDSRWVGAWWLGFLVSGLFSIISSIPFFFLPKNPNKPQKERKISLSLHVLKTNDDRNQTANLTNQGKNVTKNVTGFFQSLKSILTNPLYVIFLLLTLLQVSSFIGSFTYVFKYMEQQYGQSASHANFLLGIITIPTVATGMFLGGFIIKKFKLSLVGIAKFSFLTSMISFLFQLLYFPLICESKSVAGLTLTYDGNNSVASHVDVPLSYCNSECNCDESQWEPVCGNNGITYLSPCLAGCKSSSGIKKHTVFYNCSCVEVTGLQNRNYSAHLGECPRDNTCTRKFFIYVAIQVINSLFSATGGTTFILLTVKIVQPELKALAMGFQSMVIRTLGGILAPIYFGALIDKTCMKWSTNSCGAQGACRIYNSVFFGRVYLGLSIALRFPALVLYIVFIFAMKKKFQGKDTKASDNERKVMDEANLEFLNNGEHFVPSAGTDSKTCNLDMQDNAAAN

| SMILES | residual activity [1] [%] | residual activity [2] [%] |
| --- | --- | --- |
| C/C=C(\C)C(=O)O[C@@H]1[C@@H]2C=C3[C@@H]4CC(=O)O[C@@H](c5ccoc5)[C@]4(C)CC[C@@H]3[C@@](C)(C2=O)[C@@H]([C@@H](O)C(=O)OC)C1(C)C [SWIETENINE] | 14.03 | 69.9 |
| CCOC(=O)C(Cc1ccc(O)cc1)NC(C)=O (stereo unspecified) [ACETYL TYROSINE ETHYL ESTER] | 118.5 | 103.5 |
| COc1cc(-c2coc3cc(OC)c(OC)c(OC)c3c2=O)cc(OC)c1OC [IRIGENIN TRIMETHYL ETHER] | 216.2 | 91.27 |
| CCCCCCCCCCCC[C@@H](C(=O)O)[C@H](C)C(=O)O | 76.63 | 61.85 |
| Oc1ccc(Cl)c2cccnc12 [CLOXYQUIN] | 104 | 93.36 |
| CCCCCC(=O)Cc1cc(O)cc(O)c1C(=O)Oc1cc(CC(=O)CCCCC)c(C(=O)O)c(OC)c1 [ARTHONIOIC ACID] | 52.3 | 96.29 |
| O=C(O)/C=C/C=C/c1ccccc1 [JUAREZIC ACID] | 102.3 | 88.74 |
| COc1ccc(-c2coc3cc(OC)cc(OC)c3c2=O)cc1 [BIOCHANIN A, DIMETHYL ETHER] | 100.7 | 81.69 |
| Nc1nc2ncc(CNc3ccc(C(=O)N[C@@H](CCC(=O)O)C(=O)O)cc3)nc2c(=O)[nH]1 [FOLIC ACID] | 98.4 | 109.7 |
| CC1(C)O[C@@H]2C[C@H]3[C@@H]4C[C@H](F)C5=CC(=O)C=C[C@]5(C)[C@H]4[C@@H](O)C[C@]3(C)[C@]2(C(=O)CO)O1 [FLUNISOLIDE] | 55.07 | 77.49 |
| O=c1c(O)c(-c2ccc(O)c(O)c2)oc2cc(O)cc(O)c12 [QUERCETIN] | 47.09 | 122.6 |
| CC(=O)O[C@H]1C[C@@H](OC(C)=O)C(C)(C)[C@@H]2CC(=O)[C@]3(C)[C@H](CC[C@@]4(C)[C@H](c5ccoc5)OC(=O)[C@H]5O[C@]543)[C@@]12C | 55.58 | 72.19 |
| CC(C)CCC[C@@H](C)[C@H]1CC[C@H]2[C@@H]3CC=C4C[C@@H](O)CC[C@]4(C)[C@H]3CC[C@]12C [CHOLESTEROL] | 95.51 | 100 |
| C[C@@H](CO)NC(=O)[C@@H]1C=C2c3cccc4[nH]cc(c34)C[C@H]2N(C)C1.O=C(O)/C=C\C(=O)O [ERGONOVINE MALEATE] | 69.31 | 84.31 |
| Cc1cc(O)c2c(c1)C(=O)c1cc(O)cc(O)c1C2=O [EMODIN] | 135 | 119.5 |
| COc1ccc(-c2cc(=O)c3c(OC(C)=O)cc(OC(C)=O)cc3o2)cc1 [ACACETIN DIACETATE] | 133.5 | 127.6 |
| ClC1=C(Cl)C2(Cl)C3C(Cl)C=CC3C1(Cl)C2(Cl)Cl (stereo unspecified) [HEPTACHLOR] | 98.77 | 131.9 |
| CC[C@H]1OC(=O)[C@H](C)[C@@H](O[C@H]2C[C@@](C)(OC)[C@@H](O)[C@H](C)O2)[C@H](C)[C@@H](O[C@@H]2O[C@H](C)C[C@H](N(C)C)[C@H]2O)[C@](C)(O)C[C@@H](C)[C@@H]2N[C@@H](COCCOC)O[C@H]([C@H]2C)[C@]1(C)O [DIRITHROMYCIN] | 109.1 | 95.43 |
| CO[C@H]1C[C@H](O[C@H]2CC[C@]3(C=O)[C@H]4CC[C@]5(C)[C@@H](C6=CC(=O)OC6)CC[C@]5(O)[C@@H]4CC[C@]3(O)C2)O[C@H](C)[C@H]1O [CYMARIN] | 87.74 | 87.59 |
| CC1(C)CC[C@]2(C(=O)O)[C@H](O)C[C@]3(C)C(=CC[C@@H]4[C@@]5(C)CC[C@H](O)C(C)(C)[C@@H]5CC[C@]43C)[C@@H]2C1 [ECHINOCYSTIC ACID] | 69.3 | 30.48 |
| N=c1[nH]c(=O)c2[nH]c(=O)c(=O)[nH]c2[nH]1 [LEUCOPTERIN] | 136.6 | 98.11 |
| COc1cc2occc2c2oc(=O)ccc12 [ISOBERGAPTENE] | 127.3 | 113.9 |

| SMILES | residual activity [1] [%] | residual activity [2] [%] |
| --- | --- | --- |
| NCCCC[C@H](N)C(=O)N[C@@H](Cc1ccccc1)C(=O)N[C@@H](Cc1ccc(O)cc1)C(=O)O [LYSYLPHENYLALANYLTYROSINE] (H-Lys-Phe-Tyr-OH) | 100.8 | 112.2 |
| Cc1cc(=O)n(-c2ccccc2)n1C [ANTIPYRINE] | 79.71 | 82.49 |
| NC(=O)N1c2ccccc2CC(=O)c2ccccc21 [OXCARBAZEPINE] | 71.5 | 85.1 |
| COc1cc(OC)c2c(OC)c(-c3ccc4c(c3)OCO4)c(=O)oc2c1 [DERRUSNIN] | 141.7 | 115.7 |
| Cc1cccc(C)c1N=C1NCCCS1 [XYLAZINE] | 64.31 | 83.59 |
| COc1ccc(OC)c(C(O)C(C)N)c1.Cl (stereo unspecified) [METHOXAMINE HYDROCHLORIDE] | 80.21 | 104.7 |
| COc1ccc(C(C)=O)c(OC)c1 [PEONOL METHYL ETHER] | 105.9 | 99.54 |
| C[N+]12CCC(CC1)C(OC(=O)C(O)(c1ccccc1)c1ccccc1)C2.[Br-] (stereo unspecified) [CLIDINIUM BROMIDE] | 125.2 | 92.46 |
| CCCn1c(=O)c2[nH]c(C3CCCC3)nc2n(CCC)c1=O [1,3-DIPROPYL-8-CYCLOPENTYLXANTHINE [DPCPX]] | 264.1 | 117.3 |
| O=C(O)c1cc(=O)c2ccccc2o1 [CHROMOCARB] | 133.6 | 93 |
| CCC(Cc1c(I)cc(I)c(N)c1I)C(=O)O (stereo unspecified) [IOPANOIC ACID] | 31.11 | 59.57 |
| CC(C)CCC[C@@H](C)[C@H]1CC[C@H]2[C@@H]3C[C@@H](O)[C@@]4(O)C[C@@H](O)CC[C@]4(C)[C@H]3CC[C@]12C [CHOLESTAN-3beta,5alpha,6beta-TRIOL] | 90.42 | 93.54 |
| COc1cccc(OC)c1C(=O)N[C@@H]1C(=O)N2[C@@H]1SC(C)(C)[C@@H]2C(=O)[O-].[Na+] | 68.38 | 108.8 |
| CC[C@H](/C=C/[C@@H](C)[C@H]1CC[C@H]2[C@@H]3CC=C4C[C@@H](O)CC[C@]4(C)[C@H]3CC[C@]12C)C(C)C [STIGMASTEROL] | 110.2 | 103.2 |
| CC1(C)O[C@H]2CC(=O)OC[C@]23[C@H]2CC[C@@]4(C)[C@H](c5ccoc5)OC(=O)[C@H]5O[C@]54[C@]2(C)C(=O)C[C@@H]13 [LIMONIN] | 102.2 | 92.09 |
| C=C[C@@](C)(O)CCC1C(=C)CCC2[C@@](C)(CO)CCC[C@]12C (stereo partly drawn) [EPI(13)TORULOSOL] | 109 | 115.1 |
| COc1ccccc1OCC(O)CN1CCN(CC(=O)Nc2c(C)cccc2C)CC1 (stereo unspecified) [RANOLAZINE] | 70.75 | 83.1 |
| CC[C@@H](CO)NCCN[C@@H](CC)CO.Cl | 71.57 | 86.34 |
| CN(C)c1ccc(O)c2c1C[C@H]1C[C@H]3[C@H](N(C)C)C(O)=C(C(N)=O)C(=O)[C@@]3(O)C(O)=C1C2=O.Cl [MINOCYCLINE HYDROCHLORIDE] | 100.7 | 96.34 |
| C[C@]12CCC(=O)C=C1C=C[C@@H]1[C@@H]2CC[C@@]2(C)[C@H]1CC[C@@]21CCC(=O)O1 [CANRENONE] | 32.01 | 78.65 |
| O=C1C(Cl)=C(Cl)C(=O)C(Cl)=C1Cl [CHLORANIL] | 80.53 | 74.83 |
